Measured values published in ChEMBL document CHEMBL1201862, “PubChem BioAssay data set” (2004).
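Tested at 5 concentrations; 48 h exposure; 96-well plates; endpoints linearly interpolated, else capped at highest concentration. At the GI50, growth is halved.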 Active and inactive are the calls of the source. No stated cut-off is given here; in the data, active = GI50 up to about 1.1 µM and inactive = higher.

Columns and labels:
Assay in all cases: growth of human tumour cells (NCI), 48 h
SF-268 = test system: SF-268
KM12 = test system: KM12
SK-MEL-2 = test system: SK-MEL-2
M14 = test system: M14
SR = test system: SR
MOLT-4 = test system: MOLT-4
OVCAR-5 = test system: OVCAR-5
NCI-H226 = test system: NCI-H226
SF-295 = test system: SF-295
A498 = test system: A498
OVCAR-8 = test system: OVCAR-8
OVCAR-4 = test system: OVCAR-4
IGROV-1 = test system: IGROV-1
U-251 = test system: U-251
COLO 205 = test system: COLO 205
ACHN = test system: ACHN
SK-MEL-5 = test system: SK-MEL-5
HCT-116 = test system: HCT-116
HT-29 = test system: HT-29
SF-539 = test system: SF-539

Measured: GI50

COC12OC3(C4OC41)C(C(=O)O[C@H]3CO[Si](C)(C)C(C)(C)C)C2C(=O)Oc1ccccc1 (stereo partly drawn)
inactive: SF-268 > 100 µM | KM12 > 100 µM | SK-MEL-2 > 100 µM | M14 > 100 µM | SR > 100 µM | MOLT-4 > 100 µM | OVCAR-5 > 100 µM | NCI-H226 > 100 µM | SF-295 > 100 µM | A498 > 100 µM | OVCAR-8 > 100 µM | OVCAR-4 > 100 µM | IGROV-1 > 100 µM | U-251 > 100 µM | COLO 205 > 100 µM | ACHN > 100 µM | SK-MEL-5 > 100 µM | HCT-116 > 100 µM | HT-29 > 100 µM

Cc1nc(N(CCO)CCO)c2sc(=S)n(-c3ccccc3)c2n1
inactive: SF-268 > 100 µM | KM12 > 100 µM | SK-MEL-2 > 100 µM | SR > 100 µM | MOLT-4 > 100 µM | OVCAR-5 > 100 µM | SF-539 > 100 µM | NCI-H226 > 100 µM | SF-295 > 100 µM | A498 > 100 µM | OVCAR-8 > 100 µM | IGROV-1 > 100 µM | U-251 > 100 µM | COLO 205 > 100 µM | ACHN > 100 µM | SK-MEL-5 > 100 µM | HCT-116 > 100 µM | HT-29 > 100 µM

CN(C)c1cccc2c1C(=O)C=CC21CCc2ccc(N(C)C)c3c(N(C)C)ccc1c23 (stereo not drawn)
inactive: SF-268 14.4 µM | KM12 14.8 µM | M14 14.2 µM | SR 12 µM | MOLT-4 12 µM | OVCAR-5 19.1 µM | SF-539 16.3 µM | NCI-H226 17.1 µM | SF-295 18.8 µM | A498 4.47 µM | OVCAR-8 13.7 µM | OVCAR-4 14.8 µM | IGROV-1 13.4 µM | COLO 205 15.1 µM | ACHN 13.4 µM | SK-MEL-5 16.3 µM | HCT-116 10.9 µM | HT-29 13.1 µM

Cc1ccc(S(=O)(=O)NCCCSCCN)cc1
inactive: SF-268 > 100 µM | KM12 > 100 µM | M14 > 100 µM | SR > 100 µM | MOLT-4 > 100 µM | NCI-H226 > 100 µM | SF-295 > 100 µM | A498 4.99 µM | OVCAR-8 > 100 µM | OVCAR-4 > 100 µM | U-251 > 100 µM | COLO 205 > 100 µM | ACHN > 100 µM | SK-MEL-5 22 µM | HCT-116 > 100 µM | HT-29 > 100 µM

CN(C)CCCn1c(-c2ccc(Br)cc2)cs/c1=N\c1ccccc1
inactive: SF-268 17.1 µM | KM12 13 µM | SK-MEL-2 15.7 µM | M14 12.6 µM | SR 14 µM | MOLT-4 15.4 µM | OVCAR-5 16.5 µM | SF-539 14 µM | NCI-H226 13.2 µM | SF-295 11.2 µM | A498 8.75 µM | OVCAR-8 15.9 µM | OVCAR-4 16.1 µM | U-251 49.2 µM | ACHN 16.8 µM

O=C1CC2(CCC(O)(c3ccc4ccccc4c3)C(C(=O)c3ccc4ccccc4c3)C2)C(=O)c2ccccc2N1 (stereo not drawn)
inactive: SF-268 > 100 µM | SK-MEL-2 > 100 µM | M14 53.1 µM | SR > 100 µM | MOLT-4 8.93 µM | OVCAR-5 > 100 µM | SF-539 > 100 µM | NCI-H226 > 100 µM | SF-295 > 100 µM | A498 > 100 µM | OVCAR-8 > 100 µM | IGROV-1 > 100 µM | U-251 > 100 µM | COLO 205 > 100 µM | SK-MEL-5 23 µM | HCT-116 > 100 µM | HT-29 > 100 µM
